Measurements reported in US7348330B2, “1-azabicyclo [2,2,2] octan-3-one derivatives” (Aprea AB, priority 2000, dated 2008).

What was measured:
Saos-2-His-273 cells [1] = assay: Colony formation assay; format: cell-based, human
From the text: Colonies were stained with Giemsa and counted 14 days after seeding.
The cells were Giemsa stained and scored for the appearance of colonies after 14 days.

Saos-2-His-273 cells [2] = assay: FACS analysis of apoptosis (sub-G1, propidium iodide); format: cell-based, human; conditions: for p53 dependence of apoptosis induction: cells grown in presence or absence of doxycyclin; for time after treatment at which apoptosis/cell death is evident: data not shown
Procedure: Induction of apoptosis was determined by FACS analysis of ethanol fixed cells stained with propidium iodide (PI) as percentage of a sub-G1 population. […] The percentage of dead cells in non-treated cultures and in controls treated with caspase inhibitors only was subtracted. […] Hoechst staining was used to stain cell nuclei. […] The percentage of apoptotic cells was measured by FACS analysis as it was described in Figure.
(§1) Cells were placed on 12-well plate at a density of 30000/cm^2 and treated with compounds. After 48 h incubation cells were harvested by trypsinization, fixed with 70% ethanol, treated with RNase A (0.25 mg/ml) and stained with propidium iodide (0.02 mg/ml). Samples were analyzed on a Becton Dickinson FACScan. Data were analyzed by the CellQuest software, version 3.2.1.
Induction of cell death was determined by FACS analysis of ethanol-fixed cells stained with propidium iodide (PI) as percentage of sub-G1 population.

[3] = target: T1, GST-wild type p53 protein (Homo sapiens, UniProt P04637); assay: Band shift assay, heat-inactivated protein; format: biochemical; conditions: protein inactivated at 37° C. for 30 min
T1 construct: made in house
Procedure: Lane 3, inactivation of DNA binding of wtp53 by heating.
(§2) The GST-p53 proteins were prepared as described (Selivanova et al., 1997). Band shift assays were performed in binding buffer containing 100 mM HEPES pH 7.5, 50 mM KCl , 1 mg/ml BSA, 0.1% Triton X-100, 2 mM MgCl2 and 1 mM DTT essentially as in (Selivanova et al., 1996).
Substitution of arginin at position 175 causes a gross unfolding of the DNA binding core domain of p53. Therefore, the restoration of the DNA binding of this mutant was regarded as an exceptionally difficult task.

[4] = target: T2, GST-His-175 mutant p53 protein (Homo sapiens, UniProt P04637, R175H); assay: Band shift assay; format: biochemical
T2 construct: made in house
Procedure: FIG. 7A Lane 1-3, GST-His-175 mutant p53 is unable to bind DNA. […] PAb421 antibody was added to all reaction mixtures. […] Monoclonal antibody PAb421 was added to the reaction mixtures in lanes 2-8; PAb1801 was, added to the reaction mixtures in lanes 9-15.
as §2
Substitution of arginin at position 175 causes a gross unfolding of the DNA binding core domain of p53.

[5] = system: KRC/Y renal carcinoma cells (Phe-176 mutant p53); assay: FACS analysis of apoptosis; format: cell-based, human
Procedure: The percentage of apoptotic cells was detected by FACS analysis as it was described in FIG. 3A.
as §1
Thus, it appears that the defect caused by substitution of the Cys residue at position 176 is irreversible. The substitution of this Cys residue abolishes the binding of a Zn atom which holds together the DNA-binding loops of the p53 core domain. Therefore, the unfolding of this mutant p53 protein is probably too extensive to be restored.

[6] = target: T3, Phe-176 mutant p53 protein (Homo sapiens, UniProt P04637, C176F); assay: Band shift assay, KRC/Y cells; format: biochemical
T3 construct: as a source for endogenous p53 protein; endogenous in cells; host or cells: KRC/Y renal carcinoma cells (cell extract)
Procedure: as §2

[7] = system: p53-responsive PG-luciferase reporter in Saos-2-His-273 cells; assay: PG-luciferase reporter assay; format: cell-based, human
Procedure: Transactivation assays using p53-responsive promoter constructs linked to the luciferase reporter gene (PG-luc) were performed by the Dual Luciferase Reporter Assay System (Promega) according to the manufacturer. […] A luciferase activity was assayed 1; 3.5 and 15 hours post-treatment.

SKOV-His-175 cells = assay: p53-responsive EGFP reporter; format: cell-based, human
From the text: FIG. 9B, mutant p53-dependent activation of the wild-type p53-responsive EGFP reporter in PRIMA-1-treated SKOV-His-175 cells. […] FIG. 9C, MIRA-1 induced wild-type p53-responsive EGFP reporter in SKOV-His-175 cells.
The plasmids encoding the GST-human wild type p53 fusion protein and the GST-human mutant p53 proteins His 175 were described earlier (Selivanova et al., 1996). The p53-EGFP plasmid contains 13 synthetic p53 consensus DNA binding sites in front of the EGFP coding sequence. Transient transfections experiments were performed with Lipofectamine 2000 according to the manufacturer's recommendations (Invitrogen™ Life Technologies, Groningen, The Netherlands).
We also transiently transfected SKOV-His-175 cells with a p53-responsive EGFP reporter.

[8] = system: recombinant wild type and mutant p53 proteins; assay: ELISA of p53 conformation upon heating 30 min at 37° C.; format: biochemical, human; conditions: for appearance of PAb240 epitope (unfolding) upon heating: 37° C.; for PAb1620 epitope after heating: 30 min at 37° C.; for DO-1 non-conformational epitope: incubation with compounds
Procedure: Absorbance of the control sample incubated on ice was taken as 100%.
20 ng of GST-wtp53, GST-mtp53-175 and GST-mtp53-248 were heated at 37° C. for 30 min or kept on ice. The procedure was performed with or without tested compounds. The ELISA analyses were done as described by (Foster et al., 1999). Briefly, after the treatment, samples were diluted with coating buffer (150 mM KCL, 25 mM HEPES) supplemented with 10 mM DTT. The whole mixture was apply to ELISA plates (MaxiSorp, Nunc) and incubated at +4° C. for 35 min. The wells were washed with coating buffer. The wells were blocked by 5% skim milk in PBS by incubating at +4° C. for 1 h. […] Samples were incubated at +4° C. for 30 min. Wells were rinsed twice with PBS. After that, a secondary antibody (anti-mouse, conjugated with horse radish peroxidase) was incubated with samples at +4° C. for 30 min. Then plates were washed 5 times with PBS and a peroxidase substrate was added. An absorbance at λ405 nm was monitored by ELISA reader.

Compound	number of colonies, % of untreated control (Saos-2-His-273 cells [1]; 5 µM of compound, colonies after 14 days) [%]	induction of apoptosis (Saos-2-His-273 cells [2]; 48 hours, no doxycycline)	p53 dependence of apoptosis induction (Saos-2-His-273 cells [2])	time after treatment at which apoptosis/cell death is evident (Saos-2-His-273 cells [2]) [h]	restoration of specific DNA binding [3]	restoration of specific DNA binding [4]	induction of apoptosis compared to Saos-2-His-273 cells ([5]; 50 μM)	restoration of specific DNA binding [6]	stimulation of luciferase expression ([7]; after 3.5 hours, 10 μM) [fold]	EGFP reporter expression (SKOV-His-175 cells; 5μM for 24 hours)	appearance of PAb240 epitope (unfolding) upon heating [8]	PAb1620 epitope after heating [8]	DO-1 non-conformational epitope [8]	doses inhibitory to colony formation in a mutant p53-dependent manner (Saos-2-His-273 cells [1]; Saos-2-His-273 vs Saos-2) [µM]	induction of apoptosis (Saos-2-His-273 cells [2]; 50, 75 and 125 µM, mutant p53 expressed)	induction of apoptosis compared to Saos-2-His-273 cells ([5]; 75 μM)	induction of luciferase expression ([7]; after 15 hours, 50 μM) [fold]	EGFP reporter expression (SKOV-His-175 cells; cells expressing mutant p53, 24 hours)	EGFP reporter expression (SKOV-His-175 cells; doxycycline (p53 off), 24 hours)
CCC(=O)OCN1C(=O)C=CC1=O [MIRA-1]	15	apoptosis was induced	occurred only in the presence of p53 expression	6 to 12	able to restore	able to restore	much less prominent	not capable of restoring	2	induction of EGFP was also observed	able to prevent unfolding	preserve the conformation-dependent epitope	not affected						
O=C1C2CCN(CC2)C1(CO)CO [PRIMA-1, 2,2-bis(hydroxymethyl)-1-azabicyclo[2,2,2]octan-3-one]			occurred only in the presence of p53 expression	48	able to restore						able to prevent unfolding	preserve the conformation-dependent epitope	not affected	50 to 100	apoptosis was induced	much less prominent	2	strong induction of EGFP expression	did not express detectable levels of EGFP
